Test results taken from patent publication US8404442B2, “Methods for identification of bone anabolic agents” (New York University, priority 2009, dated 2013).

Columns and labels:
iPSCs = details: refs (7,32); cited from earlier work
[1] = tested on: Sox2-depleted osteoblasts; assay: Rescue of colony forming ability of Sox2-depleted osteoblasts; type: cell-based, mouse; details: 10 μM SB431542
Method: For colony formation assay, 0.1×10^6 cells were plated per well in a cluster-6 well plate for 24 hours. The next day, the cells were infected with a retrovirus either encoding eGFP (MSCV-eGFP) or CRE (MSCV-CRE-eGFP) at an MOI of 10, in the presence of 8 μg/ml polybrene. Twenty-four (24) hours after infection, fresh medium was added to the plate and the cells were incubated for an additional 48 hours (72 hours total from the start of infection). The infected cells were then trypsinized and re-plated at a density of 1000 cells/well in a cluster-6 well plate. The plated were incubated for 7-10 days. Green colonies were visualized and counted under a fluorescence microscope. Colonies were fixed in 20% methanol for 15 minutes at room temperature, and counted after staining with 0.5% crystal violet in 20% methanol. We have developed a 96-well format, cell-based screen using two Sox2 foxed cell lines (F/F and F/-). […] The CellTiter-Blue® Cell Viability Assay is a fluorescence-based assay for measuring cell viability, and has an excellent Z′ factor^1. […] After one hour of incubation with the reagent, fluorescence was read using a Wallac Plate Reader (Perkinelmer, Waltham, Mass.). Z′ factor and z score for each plate was calculated for each cell line at different cell plating concentrations as described (28, 29). […]

SMILES: NC(=O)c1ccc(-c2nc(-c3ccc4c(c3)OCO4)c(-c3ccccn3)[nH]2)cc1 [SB431542]
- bypass of the requirement of Sox2 in reprogramming (iPSCs): bypass the requirement of Sox2 in the reprogramming of iPSCs
- rescue of loss of colony forming ability [1]: able to rescue to loss of colony forming ability
